Here are results for 13 compounds from ChEMBL document CHEMBL1156831, “Discovery of matrix metalloproteases selective and activated peptide-doxorubicin prodrugs as anti-tumor agents” (Bioorg Med Chem Lett, 2010).

In series [1] the target is 72 kDa type IV collagenase (Homo sapiens) (UniProt P08253). Kind of series: Ratio Kcat to Ki for MMP2.
Series [2] has as its target Matrix metalloproteinase-9 (Homo sapiens) (UniProt P14780). Kind of series: Ratio Kcat to Ki for MMP9.
Series [3] has as its target Matrix metalloproteinase-14 (Homo sapiens) (UniProt P50281). The series can be described thus: Ratio Kcat to […] for MMP14.
In series [4] the target is Neprilysin (Homo sapiens) (UniProt P08473). Kind of series: Ratio Kcat to […] for neprilysin.
Chain of Neprilysin (Homo sapiens) (P08473 whole entry): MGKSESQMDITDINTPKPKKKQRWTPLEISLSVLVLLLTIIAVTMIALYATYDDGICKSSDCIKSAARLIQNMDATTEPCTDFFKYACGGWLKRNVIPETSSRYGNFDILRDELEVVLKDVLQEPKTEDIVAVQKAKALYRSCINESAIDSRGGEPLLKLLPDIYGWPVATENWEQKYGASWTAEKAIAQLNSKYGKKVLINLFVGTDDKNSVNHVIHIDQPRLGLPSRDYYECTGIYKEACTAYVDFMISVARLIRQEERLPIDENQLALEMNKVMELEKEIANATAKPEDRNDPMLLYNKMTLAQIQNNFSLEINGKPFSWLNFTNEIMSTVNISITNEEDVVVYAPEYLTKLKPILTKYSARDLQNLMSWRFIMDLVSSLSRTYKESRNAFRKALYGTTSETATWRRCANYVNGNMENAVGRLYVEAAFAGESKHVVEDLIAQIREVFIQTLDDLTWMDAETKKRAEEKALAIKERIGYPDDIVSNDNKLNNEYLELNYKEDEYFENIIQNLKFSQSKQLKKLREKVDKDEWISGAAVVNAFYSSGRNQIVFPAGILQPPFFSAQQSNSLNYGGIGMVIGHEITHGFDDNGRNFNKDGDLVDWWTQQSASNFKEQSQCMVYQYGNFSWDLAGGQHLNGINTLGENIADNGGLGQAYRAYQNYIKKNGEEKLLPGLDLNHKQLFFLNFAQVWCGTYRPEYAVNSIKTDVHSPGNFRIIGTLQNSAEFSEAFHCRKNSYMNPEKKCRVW
A short description of series [5]: Compound remaining in mouse blood after 6 hrs. It counts as ADME, tissue-based. The following applies: read-out: Stability.
Series [6] can be described thus: Aqueous solubility at pH 7.4. Format: physicochemical. The following applies: aqueous medium.

Values after ≈ are worked out from the molar mass of the structure shown. Numbered stars: 1 amine (or outer) side, 2 acyl side, 3 side chain; on linkers, the order of the positions; unused ones are H or OH. Square brackets hold non-standard residues; d marks the D form. Peptide text beside a SMILES is read from it. * marks the point of attachment. Doxorubicin(3'-N) = COc1cccc2c1C(=O)c1c(O)c3c(c(O)c1C2=O)C[C@@](O)(C(=O)CO)C[C@@H]3O[C@H]1C[C@H](N*)[C@H](O)[C@H](C)O1; X6 = CN1CCN(CCCC(N[*:1])C(=O)[*:2])CC1; hTyr = N[C@@H](CCc1ccc(O)cc1)C(=O)O; X2 = O=C(C(CCc1ccncc1)N[*:1])[*:2]; hPhe = N[C@@H](CCc1ccccc1)C(=O)O; Bn = c1ccc(C*)cc1 Some results are limits rather than exact numbers.

Chain of Matrix metalloproteinase-9 (Homo sapiens) (P14780 whole entry): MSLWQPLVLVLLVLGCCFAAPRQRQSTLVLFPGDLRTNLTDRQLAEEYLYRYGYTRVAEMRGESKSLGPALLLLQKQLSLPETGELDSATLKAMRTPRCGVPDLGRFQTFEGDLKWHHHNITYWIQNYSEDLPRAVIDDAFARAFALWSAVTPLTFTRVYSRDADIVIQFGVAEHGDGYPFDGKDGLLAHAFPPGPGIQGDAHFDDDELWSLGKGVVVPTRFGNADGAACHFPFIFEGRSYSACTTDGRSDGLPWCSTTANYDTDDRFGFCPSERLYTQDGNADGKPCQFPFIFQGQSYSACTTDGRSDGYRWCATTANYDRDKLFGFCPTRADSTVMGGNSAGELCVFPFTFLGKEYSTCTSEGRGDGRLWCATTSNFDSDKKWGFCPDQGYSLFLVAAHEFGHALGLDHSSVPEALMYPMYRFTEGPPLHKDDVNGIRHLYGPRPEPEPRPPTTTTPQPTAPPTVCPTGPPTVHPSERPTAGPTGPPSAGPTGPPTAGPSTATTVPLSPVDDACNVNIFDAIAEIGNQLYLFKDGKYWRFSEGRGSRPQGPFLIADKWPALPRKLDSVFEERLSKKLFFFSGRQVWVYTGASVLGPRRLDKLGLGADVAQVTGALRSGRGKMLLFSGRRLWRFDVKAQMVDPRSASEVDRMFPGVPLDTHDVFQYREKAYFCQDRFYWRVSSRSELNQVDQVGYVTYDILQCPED
Chain of 72 kDa type IV collagenase (Homo sapiens) (P08253 110-660 limits assumed): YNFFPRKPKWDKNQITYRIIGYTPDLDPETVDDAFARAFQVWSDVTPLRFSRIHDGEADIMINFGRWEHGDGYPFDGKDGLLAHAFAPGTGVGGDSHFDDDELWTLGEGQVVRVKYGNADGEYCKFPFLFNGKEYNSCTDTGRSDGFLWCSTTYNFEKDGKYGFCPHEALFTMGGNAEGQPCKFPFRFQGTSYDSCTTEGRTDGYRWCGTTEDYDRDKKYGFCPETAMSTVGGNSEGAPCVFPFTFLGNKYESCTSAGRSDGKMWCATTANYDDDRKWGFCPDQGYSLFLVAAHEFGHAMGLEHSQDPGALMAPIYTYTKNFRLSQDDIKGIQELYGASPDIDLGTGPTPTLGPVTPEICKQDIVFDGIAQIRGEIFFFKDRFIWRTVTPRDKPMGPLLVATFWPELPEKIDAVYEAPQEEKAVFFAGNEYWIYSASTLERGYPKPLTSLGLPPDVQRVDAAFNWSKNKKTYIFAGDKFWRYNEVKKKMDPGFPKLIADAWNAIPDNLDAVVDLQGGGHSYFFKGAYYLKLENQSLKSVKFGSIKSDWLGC

Take `COc1cccc2c1C(=O)c1c(O)c3c(c(O)c1C2=O)C[C@@](O)(C(=O)CO)C[C@@H]3O[C@H]1C[C@H](NC(=O)[C@H](CC(C)C)NC(=O)[C@H](Cc2ccc(O)cc2)NC(=O)[C@H](CSCc2ccccc2)NC(=O)CNC(=O)[C@H](CC(C)C)NC(=O)[C@@H]2CCCN2C(=O)[C@H](CCC(=O)O)NC(C)=O)[C@H](O)[C@H](C)O1` (Ac-EPLGC(Bn)YL-{Doxorubicin(3'-N)}): the Ratio in series [1] was 40; in series [2] it was 107; in series [3] it was 97; in series [4], < 1. For the same compound, the remaining at 6 h in series [5] was found to be 90%. Besides, the solubility in series [6] was > 2200 µg/mL.
For the compound `COc1cccc2c1C(=O)c1c(O)c3c(c(O)c1C2=O)C[C@@](O)(C(=O)CO)C[C@@H]3O[C@H]1C[C@H](NC(=O)[C@H](CC(C)C)NC(=O)[C@H](CC(C)C)NC(=O)CNC(=O)[C@H](CC(C)C)NC(C)=O)[C@H](O)[C@H](C)O1` (Ac-LGLL-{Doxorubicin(3'-N)}), the Ratio is < 1 in series [1], < 1 in series [2], < 1 in series [3] and 5 in series [4].
Consider `COc1cccc2c1C(=O)c1c(O)c3c(c(O)c1C2=O)C[C@@](O)(C(=O)CO)C[C@@H]3O[C@H]1C[C@H](NC(=O)[C@H](CC(C)C)NC(=O)[C@H](Cc2ccc(O)cc2)NC(=O)[C@H](CC(C)C)NC(=O)CNC(=O)[C@H](CC(C)C)NC(C)=O)[C@H](O)[C@H](C)O1` (Ac-LGLYL-{Doxorubicin(3'-N)}), for which the Ratio was 6 in series [1], 1 in series [2], 24 in series [3] and 8 in series [4].
On to `COc1cccc2c1C(=O)c1c(O)c3c(c(O)c1C2=O)C[C@@](O)(C(=O)CO)C[C@@H]3O[C@H]1C[C@H](NC(=O)[C@H](CC(C)C)NC(=O)CNC(=O)[C@H](CC(C)C)NC(=O)[C@@H]2CCCN2C(C)=O)[C@H](O)[C@H](C)O1` (Ac-PLGL-{Doxorubicin(3'-N)}), for which the Ratio in series [1] and in series [2] was < 1 in each case.
With `COc1cccc2c1C(=O)c1c(O)c3c(c(O)c1C2=O)C[C@@](O)(C(=O)CO)C[C@@H]3O[C@H]1C[C@H](NC(=O)[C@H](CC(C)C)NC(=O)[C@H](CC(C)C)NC(=O)CNC(=O)[C@H](CC(C)C)NC(=O)[C@@H]2CCCN2C(C)=O)[C@H](O)[C@H](C)O1` (Ac-PLGLL-{Doxorubicin(3'-N)}), the Ratio in series [1] is 18; in series [2], > 120; in series [3], 4; in series [4], 22.
Consider `COc1cccc2c1C(=O)c1c(O)c3c(c(O)c1C2=O)C[C@@](O)(C(=O)CO)C[C@@H]3O[C@H]1C[C@H](NC(=O)[C@H](CC(C)C)NC(=O)[C@H](C)NC(=O)[C@H](Cc2ccc(O)cc2)NC(=O)[C@H](CC(C)C)NC(=O)CNC(=O)[C@H](CC(C)C)NC(=O)[C@@H]2CCCN2C(C)=O)[C@H](O)[C@H](C)O1` (Ac-PLGLYAL-{Doxorubicin(3'-N)}), for which the Ratio in series [1], in series [2], in series [3] and in series [4] was > 120 throughout.
In the case of `COc1cccc2c1C(=O)c1c(O)c3c(c(O)c1C2=O)C[C@@](O)(C(=O)CO)C[C@@H]3O[C@H]1C[C@H](NC(=O)[C@H](CC(C)C)NC(=O)[C@H](Cc2ccc(O)cc2)NC(=O)[C@H](CC(C)C)NC(=O)CNC(=O)[C@H](CC(C)C)NC(=O)[C@@H]2CCCN2C(C)=O)[C@H](O)[C@H](C)O1` (Ac-PLGLYL-{Doxorubicin(3'-N)}), the Ratio in series [1] is 88; in series [2] it was 390; in series [3], > 120; in series [4], 22.
Turning to `COc1cccc2c1C(=O)c1c(O)c3c(c(O)c1C2=O)C[C@@](O)(C(=O)CO)C[C@@H]3O[C@H]1C[C@H](NC(=O)[C@H](CC(C)C)NC(=O)[C@H](Cc2ccc(O)cc2)NC(=O)[C@H](COCc2ccccc2)NC(=O)CNC(=O)[C@H](CC(C)C)NC(=O)[C@@H]2CCCN2C(C)=O)[C@H](O)[C@H](C)O1` (Ac-PLGS(Bn)YL-{Doxorubicin(3'-N)}), the Ratio is 7 in series [1], 34 in series [2], 25 in series [3] and < 1 in series [4].
As to `COC[C@H](NC(=O)CNC(=O)[C@H](CC(C)C)NC(=O)[C@@H]1CCCN1C(C)=O)C(=O)N[C@@H](Cc1ccc(O)cc1)C(=O)N[C@@H](CC(C)C)C(=O)N[C@H]1C[C@H](O[C@H]2C[C@](O)(C(=O)CO)Cc3c(O)c4c(c(O)c32)C(=O)c2c(OC)cccc2C4=O)O[C@@H](C)[C@H]1O` (Ac-PLGS(Me)YL-{Doxorubicin(3'-N)}), the Ratio amounted to 24 in series [1], 79 in series [2], 69 in series [3] and 2.1 in series [4]. Moreover, the remaining at 6 h in series [5] was found to be 31%. Besides, the solubility in series [6] was determined as 40 µg/mL (≈ 32.5 µM).
`COc1cccc2c1C(=O)c1c(O)c3c(c(O)c1C2=O)C[C@@](O)(C(=O)CO)C[C@@H]3O[C@H]1C[C@H](NC(=O)[C@H](CC(C)C)NC(=O)[C@H](Cc2ccc(O)cc2)NC(=O)C(CCc2ccncc2)NC(=O)CNC(=O)[C@H](CC(C)C)NC(=O)[C@@H]2CCCN2C(C)=O)[C@H](O)[C@H](C)O1` (stereo not given in full) (Ac-PLG[X2]YL-{Doxorubicin(3'-N)}): the Ratio in series [1] was 21; in series [2], 43; in series [3], 58; in series [4], < 1. Moreover, the remaining at 6 h in series [5] is 59%. This compound had a solubility in series [6] of 380 µg/mL (≈ 294 µM).
As for `COc1cccc2c1C(=O)c1c(O)c3c(c(O)c1C2=O)C[C@@](O)(C(=O)CO)C[C@@H]3O[C@H]1C[C@H](NC(=O)[C@H](CC(C)C)NC(=O)[C@H](C)NC(=O)[C@H](CCc2ccccc2)NC(=O)CNC(=O)[C@H](CC(C)C)NC(=O)[C@@H]2CCCN2C(C)=O)[C@H](O)[C@H](C)O1` (Ac-PLG[hPhe]AL-{Doxorubicin(3'-N)}), the Ratio is 11 in series [1], < 1 in series [2], 19 in series [3] and 1 in series [4].
Turning to `COc1cccc2c1C(=O)c1c(O)c3c(c(O)c1C2=O)C[C@@](O)(C(=O)CO)C[C@@H]3O[C@H]1C[C@H](NC(=O)[C@H](CC(C)C)NC(=O)C(CCCN2CCN(C)CC2)NC(=O)[C@H](CCc2ccccc2)NC(=O)CNC(=O)[C@H](CC(C)C)NC(=O)[C@@H]2CCCN2C(C)=O)[C@H](O)[C@H](C)O1` (stereo partly drawn) (Ac-PLG[hPhe][X6]L-{Doxorubicin(3'-N)}), the Ratio was 55 in series [1], 73 in series [2], > 120 in series [3] and < 1 in series [4]. Besides, the remaining at 6 h in series [5] turned out to be 100%. The compound further showed a solubility in series [6] of 130 µg/mL (≈ 98.1 µM).
In the case of `COc1cccc2c1C(=O)c1c(O)c3c(c(O)c1C2=O)C[C@@](O)(C(=O)CO)C[C@@H]3O[C@H]1C[C@H](NC(=O)[C@H](CC(C)C)NC(=O)[C@H](CCc2ccc(O)cc2)NC(=O)[C@H](CCc2ccccc2)NC(=O)CNC(=O)[C@H](CC(C)C)NC(=O)[C@@H]2CCCN2C(C)=O)[C@H](O)[C@H](C)O1` (Ac-PLG[hPhe][hTyr]L-{Doxorubicin(3'-N)}), the Ratio was 116 in series [1], > 120 in series [2], > 120 in series [3] and < 1 in series [4]. Further, the remaining at 6 h in series [5] came out at 13%. This compound also displayed a solubility in series [6] of 1 µg/mL (≈ 0.767 µM).

A word on the solubility: it is the concentration that dissolves in the medium under given conditions. High values mean a readily soluble substance, low ones a poorly soluble substance.
